Laboratory results taken from PubChem BioAssay (NCI).
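In this assay, cells in 96-well plates receive the compound at five concentrations for 48 hours. Endpoints are linearly interpolated between the surrounding concentrations. GI50 is the concentration that inhibits growth by half. TGI denotes the concentration required for complete inhibition of growth.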

Key:
Assay in all cases: DTP human tumour cell line panel, 48 h
[1] = test system: 786-0 renal
[2] = test system: DU-145 prostate
[3] = test system: HCT-116 colon
[4] = test system: HOP-62 NSCLC
[5] = test system: IGROV1 ovarian
[6] = test system: MALME-3M melanoma
[7] = test system: MOLT-4 leukemia
[8] = test system: NCI-H522 lung
[9] = test system: OVCAR-4 ovarian
[10] = test system: SNB-19 CNS

| Compound | TGI [1] [µM] | TGI [2] [µM] | TGI [3] [µM] | TGI [4] [µM] | TGI [5] [µM] | TGI [6] [µM] | TGI [7] [µM] | TGI [8] [µM] | TGI [9] [µM] | TGI [10] [µM] | GI50 [2] [µM] | GI50 [3] [µM] | GI50 [4] [µM] | GI50 [5] [µM] | GI50 [7] [µM] | GI50 [8] [µM] | GI50 [9] [µM] | GI50 [10] [µM] |
| --- | --- | --- | --- | --- | --- | --- | --- | --- | --- | --- | --- | --- | --- | --- | --- | --- | --- | --- |
| C[N+]12C=CC=C1C(N1CCCC1)c1sc(-c3ccc(Cl)cc3)cc12 (stereo not given) | 28.8 | 32.6 | 29.6 | 31.3 | 39 | 31.1 | 53.5 | 27 | 33.4 | 26.8 |  |  |  |  |  |  |  |  |
| Nc1c2ccccc2nc2ccc(C(=O)Nc3ccc(S(N)(=O)=O)cc3)cc12 | > 100 | > 100 | > 100 | > 100 | > 100 | > 100 | > 100 | > 100 | > 100 | > 100 |  |  |  |  |  |  |  |  |
| O=C(C(=O)n1ccc2ccccc21)c1c[nH]c2ccccc12 | > 10 | > 10 | > 10 | > 10 | > 10 | > 10 | > 10 | > 10 | > 10 | > 10 |  |  |  |  |  |  |  |  |
| O=S(=O)(CC#CCS(=O)(=O)c1ccccc1)c1ccccc1 | 2.24 | 17.4 | 2.39 | 20.7 | 2.94 | 3.82 | > 42.2 | 1.63 | 3.71 | 32.9 |  |  |  |  |  |  |  |  |
| CCC1OC(=O)C(C)C(OC2CC(C)(O)C(O)C(C)O2)C(C)C(O)C(C)(O)CC(C)C(=O)C(C)C(O)C1C (stereo not given) |  |  | > 300 | > 300 | > 300 | > 300 | > 300 | > 300 | > 300 | > 300 |  |  |  |  |  |  |  |  |
| CN(C)/C=C/c1ccnc2c1C(=O)c1ccccc1C2=O | 73.6 | 3.41 | 20.9 | 62.6 | 35.2 | 5.09 | > 64.1 | 24.2 | 66 | 25.6 |  |  |  |  |  |  |  |  |
| CN(C)CCCN1c2ccc3ccccc3c2Sc2cccc(Cl)c21 | 8.84 | 14.8 | 14 | 9.32 | 5.85 | 23 | 4.75 | 10.5 | 13.8 | 22.7 |  |  |  |  |  |  |  |  |
| O=C(Cl)c1cc([N+](=O)[O-])cc([N+](=O)[O-])c1 | > 100 |  | > 100 | > 100 | > 100 | > 100 | > 100 | > 100 | > 100 | > 100 |  |  |  |  |  |  |  |  |
| CC(C)NC(=O)OCc1c(COC(=O)NC(C)C)c(-c2ccc[n+](COC(=O)C3CCCCC3)c2)n2c1CCC2 | > 100 | > 100 | > 100 | > 100 | > 100 | > 100 | > 100 | 58 | > 100 | > 100 |  |  |  |  |  |  |  |  |
| CC(C)(C)OC(=O)N1CC(COS(C)(=O)=O)c2ccc(O)cc21 (stereo not given) | 11 | 3.53 | 10.3 | 8.05 | 12.1 | 2.86 | 3.92 | 2.39 | 3.13 | 8.95 |  |  |  |  |  |  |  |  |
| NC(N)=NS(=O)(=O)c1ccc(NC(=O)c2c3ccccc3nc3ccccc23)cc1 | > 100 | > 100 | > 100 | > 100 | > 100 | > 100 | > 100 | > 100 | > 100 | > 100 |  |  |  |  |  |  |  |  |
| N#C/C(=C/NC(=S)Nc1ccc(S(N)(=O)=O)cc1)C(N)=O | > 100 | > 100 | > 100 | > 100 | > 100 | > 100 | > 100 | > 100 | > 100 |  |  |  |  |  |  |  |  |  |
| Nc1cc(N)c2nc(-c3ccccc3)c(Sc3ccc(F)cc3)nc2c1 |  | 37.7 | 28.3 | 34.3 | > 100 |  | > 100 | > 100 | 55.9 | 41.7 | 19.8 | 14.7 | 16.6 | 25 | > 100 | > 100 | 22.9 | 20 |
| c1ccc(C2(c3cc4ccccc4[nH]3)OCCO2)cc1 | > 100 | > 100 | > 100 |  | > 100 |  | 49.4 |  | > 100 | > 100 |  |  |  |  |  |  |  |  |
| O=c1[nH]/c(=C/c2ccc(OCc3ccccc3)cn2)c(=O)[nH]/c1=C/c1cccnc1 | > 100 | 2.08 | > 100 | > 100 |  | > 27.6 |  | 0.588 | > 61.5 | > 100 |  |  |  |  |  |  |  |  |
| CC(C)(C)OC(=O)N(CCCN)CCCCN(CCCN)C(=O)OC(C)(C)C | > 100 | > 100 | > 100 | > 100 | > 100 |  | > 100 | > 100 | > 100 | > 100 |  |  |  |  |  |  |  |  |
| C[N+](C)(C)CC(=O)N/N=C(\C(=O)Nc1ccc(Cl)cc1)C1C(=O)N(c2ccccc2)N=C1N (stereo not given) | > 100 |  | > 100 | > 100 | > 100 | > 100 | > 100 | > 100 | > 100 | > 100 |  |  |  |  |  |  |  |  |
| O=C(N/N=C/c1cc(-c2ccccc2Cl)c(-c2ccccc2Cl)o1)c1ccncc1 | > 100 |  | > 100 | > 100 | > 100 | > 100 |  | > 100 | > 100 | > 100 |  |  |  |  |  |  |  |  |
| COc1ccc(C2Oc3cc(OC)c(O)cc3[C@@H]2C)cc1 (stereo not given in full) | 31.3 |  | 25.9 | > 100 |  | > 100 | 42.8 | 38 | > 100 | 19.5 |  |  |  |  |  |  |  |  |
| CC(C)(C)OC(=O)NCCNC(=O)OCc1ccccc1 | > 100 | > 100 |  | > 100 | > 100 | > 100 | > 100 | > 100 |  | > 100 |  |  |  |  |  |  |  |  |
| CCC(c1ccc(N(C)C)cc1)C1NC(=S)NC1=O (stereo not given) | > 100 | > 100 | > 100 |  | > 100 | > 100 | > 100 | > 100 | > 100 | > 100 |  |  |  |  |  |  |  |  |
| O=C(c1ccccc1)c1cc(-c2ccccc2)c(-c2ccccc2)[nH]c(=O)c1=O | > 100 |  | > 100 | > 100 | > 100 | > 100 | 57.2 | 74.4 | > 100 | > 100 |  |  |  |  |  |  |  |  |
| Cc1c2cccc-2c(N(C)C)cc2c1[nH]c1ccccc12 | 12 | 28.7 | 12.6 | 15.1 | 4.9 | 10.9 | 16.9 |  |  | 22.1 |  |  |  |  |  |  |  |  |
